Results published in PMC3983056 (PLoS Pathogens, 2014).
“And” between values parts separate entries of the source, which are not always exact repeats. Equal entries are not always repeated. Where two headings read alike, the source gives them in different places.

Experiments:
[1] = test system: HIV expressing a luciferase reporter gene (NL4-3-Luc) in latently infected primary CD4 T cells; assay: microbe, parasite or virus in culture; assay type: cell-based; conditions: continuous 48 hours, cells from three healthy donors, mean ± SD
Source text: To assess clinically tested HDACi for their ability to activate HIV from latency, we first employed a previously described in vitro HIV latency model, [30] with several modifications to increase the sensitivity of detection. The assay involves freshly isolated naïve CD4 T cells from healthy donors polarized to a Th0 phenotype, which mimics memory CD4 T cells. These Th0 cells are then infected with HIV expressing a luciferase reporter gene and cultured for an additional 7 to 10 days until a latent infection is established.
Total peripheral blood mononuclear cells (PBMCs) were obtained from healthy HIV-negative donors by leukapheresis (AllCells, Inc, Emeryville, CA). […] Purified naive CD4+ T cells were activated by incubation with anti-CD3/CD28 magnetic Dynabeads (1 bead: 2 cells ratio, Life Technologies), 1 µg/ml anti-IL-4 (R&D Systems, Minneapolis, MN), 2 µg/ml anti-IL-12p70 antibodies (R&D Systems), and 10 ng/ml TGF-β (R&D Systems) for 3 days, [59]. Following the removal of anti-CD3/CD28 beads and antibodies, cells were maintained in 30 U/ml IL-2 (Life Technologies) for 2 days. Cells were then infected with NL4.3-Luc in the presence of 50 µg/ml DEAE for 3 hours. Cells were maintained in the continued presence of 30 U/ml IL-2 throughout the infection and subsequent rest period with culture medium with fresh IL-2 replaced every 2–3 days. Seven days post-infection, 20 µl of latently infected cells were dispensed into 384 well plates using a MicroFlo dispenser (Biotek Insturments, VT) at 10,000 cells/well containing 100 nl of compound solutions delivered by the Echo acoustic-based liquid dispenser (Labcyte, Sunnyvale, CA). After a 48-hour incubation, 16 µl/well BriteGlo (Promega, Madison, WI) was added and luminescence measured using the Envision plate reader (Perkin Elmer, Waltham, MA). Compound-associated cytotoxicity was determined in latently infected cells in parallel with the virus activation assay. Cells were incubated with compounds for 48 hours at 37°C, and cell viability was determined using Cell Titer Glo reagent (Promega).

[2] = Compound-associated cytotoxicity in latently infected cells (Cell Titer Glo); assay type: cell-based, human; conditions: human, latently infected (NL4.3-Luc) primary CD4+ T cells, continuous 48 hours, 50% cell viability reduction, three donors, mean ± SD
Experimental: Total peripheral blood mononuclear cells (PBMCs) were obtained from healthy HIV-negative donors by leukapheresis (AllCells, Inc, Emeryville, CA). Naive CD4+ T cells were purified by negative selection using EasySep magnetic beads (StemCells, Inc, Vancouver, Canada) and cultured in RPMI with 10% fetal bovine serum (FBS), penicillin/streptomycin, 1% nonessential amino acids (Life Technologies, Carlsbad, CA), 1% sodium pyruvate (Life Technologies) and 495 nM beta-mercaptoethanol (Sigma Aldrich, St. Louis, MO) in a 37°C, 5% CO2 incubator. Purified naive CD4+ T cells were activated by incubation with anti-CD3/CD28 magnetic Dynabeads (1 bead: 2 cells ratio, Life Technologies), 1 µg/ml anti-IL-4 (R&D Systems, Minneapolis, MN), 2 µg/ml anti-IL-12p70 antibodies (R&D Systems), and 10 ng/ml TGF-β (R&D Systems) for 3 days, [59]. Following the removal of anti-CD3/CD28 beads and antibodies, cells were maintained in 30 U/ml IL-2 (Life Technologies) for 2 days. Cells were then infected with NL4.3-Luc in the presence of 50 µg/ml DEAE for 3 hours. Cells were maintained in the continued presence of 30 U/ml IL-2 throughout the infection and subsequent rest period with culture medium with fresh IL-2 replaced every 2–3 days. Seven days post-infection, 20 µl of latently infected cells were dispensed into 384 well plates using a MicroFlo dispenser (Biotek Insturments, VT) at 10,000 cells/well containing 100 nl of compound solutions delivered by the Echo acoustic-based liquid dispenser (Labcyte, Sunnyvale, CA). After a 48-hour incubation, 16 µl/well BriteGlo (Promega, Madison, WI) was added and luminescence measured using the Envision plate reader (Perkin Elmer, Waltham, MA). Compound-associated cytotoxicity was determined in latently infected cells in parallel with the virus activation assay. Cells were incubated with compounds for 48 hours at 37°C, and cell viability was determined using Cell Titer Glo reagent (Promega).

[3] = test system: latent HIV in resting CD4 T cells from HIV-infected patients on suppressive cART; assay type: cell-based; conditions: for HIV RNA avg: Figure 4, 25 nM PNB, one value per donor; for persistence of intracellular HIV RNA induction: pulse RMD 4 hours, VOR 24 hours, PNB 24 hours, 6 to 48 hours
Experimental: (§1) To examine the kinetics of HIV induction, we analyzed cell-associated viral RNA levels at 6, 12, 24, and 48 hours after treatment initiation.
(§2) Lysates were filtered through a Qiashredder (Qiagen).

[4] = test system: total class I and II HDAC enzyme activity in resting CD4 T cells; conditions: pulse RMD 4 hours, VOR 24 hours, PNB 24 hours, 6 to 48 hours
Experimental: Resting CD4 T cells obtained from HIV-infected patients on suppressive cART were incubated with serial dilutions of HDACi in 96-well plates at 10,000 cells/well for indicated time and then lysed by repeated freezing and thawing. Total cellular HDAC activity was measured using the HDAC-Glo I/II assay kit (Promega) according to the manufacturer's protocol.

[5] = test system: HIV; conditions: cited from earlier work
[6] = test system: memory CD4 cells from HIV-infected patients; assay: Viability of primary memory CD4 cells (Cell TiterGlo, 6 days); assay type: cell-based, human; conditions: same incubation period (6 days), data not shown
Experimental: Cell viability was determined using a Cell TiterGlo reagent 6 days after the initiation of treatment and is expressed as a percentage of cell viability relative to control vehicle-treated memory CD4 cells from the same donors. The data represent mean +/− S.D. from three independent donors. (TIF) Click here for additional data file.

[7] = test system: latent HIV in memory CD4 T cells from HIV-infected patients on suppressive cART
Source text: We used HIV RNA in cell culture supernatants as a surrogate marker for virion release from treated cells. We assumed that extracellular virions would accumulate over the course of several days; therefore, the duration of culture was extended to 6 days to maximize assay sensitivity.
(§3) HIV-infected patients participating in the study were selected based on sustained plasma viral load suppression (<50 copies/ml for >12 months), CD4 counts (>350 cells/µL), and absence of co-infection with hepatitis B or C virus (Supplementary Table S1). Clinical laboratory results were reconfirmed 2 weeks before leukapheresis or blood draw. Leukapheresis was conducted for 3–4 hours, and samples were processed within 2 hours after collection. The leukapheresis product was diluted 1∶1 with PBS and layered over Ficoll for isolation of PBMCs. […] Resting CD4 T cells were isolated by first enriching total CD4 T cells (StemCell Technologies) and subsequently depleting HLA-DR-, CD25-, and CD69-positive cells via negative selection (Miltenyi Biotec, Auburn, CA).
(§4) To assess HIV activation by HDACi, up to 5 million CD4 T cells were plated in 24-well plates in 2.5 ml of media, supplemented with antiretrovirals (ARVs) (100 nM elvitegravir and 100–300 nM efavirenz) for the entire duration of culture incubation. HDACi were added at specified concentrations on day 0 and cells or culture supernatants were harvested for the analysis of HIV RNA at the indicated time points (6–48 hours or 6–7 days, respectively). For HDACi pulse treatment, cultures were washed twice using ARV-containing media at 4 or 24 hours after addition of HDACi and incubated with ARVs until harvest. To measure HIV RNA levels, 1 ml of culture supernatant was analyzed by a robotic COBAS AmpliPrep/TaqMan system (Roche Diagnostics, Indianapolis, IN), which extracts total nucleic acid and quantifies HIV RNA in copies per milliliter using the HIV-1 Test, v2.0 kit (Roche Diagnostics). For the measurement of cell-associated HIV RNA levels, cells were washed with PBS, counted, and lysed (Qiagen RLT buffer, 400 µl for every 2 million cells; Qiagen, Venlo, Netherlands). Lysates were filtered through a Qiashredder (Qiagen). Total RNA was prepared from the lysates (400 µl) using a robotic system (QIAsymphony, Qiagen) that incorporates a DNase I digestion step to eliminate cellular DNA. The resulting total RNA was eluted with 200 µl of buffer, diluted to 1 ml with nuclease-free water, and analyzed by COBAS using the HIV-1 Test v2.0 kit. Preparations of both cell-associated RNA and supernatant total nucleic acids were tested for potential contamination with HIV DNA and/or host DNA by performing the PCR amplification in the presence and absence of reverse transcriptase and by a detection of GAPDH-encoding host DNA sequence.
(§5) HIV RNA-induction experiments were conducted using 5 to 6 replicates for every experimental condition, including vehicle-treated controls. Fold induction in HIV RNA levels was calculated as a ratio of mean signals from compound-treated and vehicle (DMSO)-treated control samples from the same donor under identical conditions. […] For experiments using blood-derived resting CD4 T cells, culture supernatants from 3 replicate wells were combined and analyzed using the COBAS system.

[8] = test system: latent HIV in memory CD4 T cells from HIV-infected patients on suppressive cART; assay: Ex vivo activation of HIV transcription, cell-associated HIV RNA, memory CD4 T cells; assay type: cell-based; conditions: memory CD4 T cells, 1 µM VOR
Experimental: as §1, §2

[9] = test system: latent HIV in resting CD4 T cells from HIV-infected patients on suppressive cART; assay: Ex vivo release of extracellular HIV RNA into culture supernatants, resting CD4 T cells; assay type: cell-based; conditions: resting CD4 T cells
Experimental: as §3, §4, §5

[10] = test system: HIV gag-pol RNA from resting CD4 T cells of a cART-suppressed patient; assay: Single-genome sequencing of HIV RNA in culture supernatants; assay type: cell-based; conditions: 2 µM SAHA, day 7
Source text: In parallel, we assessed the sequence diversity of HIV proviruses integrated in genomic DNA of resting CD4 T cells from the same culture.
Figure 8 Phylogenetic analysis of HIV sequences expressed ex vivo following the latency reversal. […] Single-genome sequencing was used to analyze patient HIV proviral DNA and plasma RNA at the initiation of treatment (day 0), together with the ex vivo induced HIV RNA in cell culture supernatants at the end of treatment (day 7). […] Identified HIV DNA and RNA sequences were aligned and the phylogenetic tree was constructed using Clustal W and MEAG5.
Single-genome sequencing of a portion of HIV-1 gag-pro-pol amplified from cell culture supernatants or cellular DNA extracts was performed as previously described [34]–[36]. Sequences were aligned using ClustalW and neighbor-joining phylogenetic analysis was performed using MEGA5. Trees were rooted on the subtype B consensus sequence (www.hiv.lanl.gov).

[11] = Cell culture medium protein binding by equilibrium dialysis, HPLC/mass spectrometry; assay type: in vitro ADME
[12] = test system: latently infected cells expressing Bcl2; parameters: method as in PMID 22406268; conditions: in vitro latency model with ectopic Bcl2; cited from earlier work
[13] = Human immunodeficiency virus 1, NL43, CD4+ T, 48 h

Cc1[nH]c2ccccc2c1CCNCc1ccc(/C=C/C(=O)NO)cc1 [PNB, panobinostat]
EC50 [1, 13]: 10 nM
EC50 [1]: 10.1 ± 1 nM
CC50 at 48 h [2]: > 2500 nM
HIV RNA avg ([3]; 6 hours): 4342 copies/mil cells and 2414 copies/mil cells
HIV RNA avg ([3]; 24 hours): 11600 copies/mil cells and 5606 copies/mil cells
HIV RNA avg ([3]; 48 hours): 1815 copies/mil cells and 783 copies/mil cells
persistence of intracellular HIV RNA induction ([3]; resting CD4 T cells): transient and diminished after 24 hours
persistence of inhibition of cell-associated HDAC activity [4]: transient and decreased after 24 hours of incubation
HIV transcription and viremia in peripheral blood ([5]; multiple doses of PNB, HIV-positive patients on suppressive cART): induce intracellular HIV transcription and low-level viremia

Nc1ccccc1NC(=O)c1ccc(CNc2nccc(-c3cccnc3)n2)cc1 [Mocetinostat, mocetinostat]
EC50 [1, 13]: 13600 nM
CC50 at 48 h [2]: 10100 nM

CN(CC[C@H](N)CC(=O)N[C@H]1C=C[C@H](n2ccc(N)nc2=O)O[C@@H]1C(=O)O)C(=N)N [blasticidine]
cell death [6]: > 80%
release of HIV RNA into cell culture supernatants ([7]; highly cytotoxic control, data not shown): did not lead to release of detectable levels of HIV RNA

CCCCc1nc2cc(/C=C/C(=O)NO)ccc2n1CCN(CC)CC [SB939, pracinostat]
EC50 [1, 13]: 212 ± 14 nM
CC50 at 48 h [2]: > 50000 nM

O=C(CCCCCCC(=O)Nc1ccccc1)NO [VOR, suberoylanilide hydroxamic acid]
CC50 at 48 h [2]: > 25000 nM
cell-associated HIV RNA at 48 hours [8]: decreased by 48 hours to levels detected in vehicle-treated cells
cell-associated HIV RNA at 48 hours ([3]; resting CD4 T cells, 1 µM VOR): decreased by 48 hours to levels detected in vehicle-treated cells
increase in intracellular HIV RNA levels versus vehicle ([3]; resting CD4 T cells, 1 µM VOR, 24-hour treatment): rapid, but transient and less-pronounced activation
persistence of intracellular HIV RNA induction ([3]; resting CD4 T cells): transient and diminished after 24 hours
extracellular HIV RNA versus untreated controls ([9]; 0.5 µM VOR continuous 6 days): did not increase extracellular HIV RNA significantly
patient-derived cultures with measurable increase of extracellular HIV RNA ([9]; 1 µM VOR continuous 6 days): 3 of 7
sequences of HIV RNA recovered in culture supernatants [10]: No HIV RNA sequences were recovered
fraction unbound [11]: 0.68
HIV RNA in culture supernatants ([7]; memory CD4 T cells, 1 µM VOR continuous 6 days, two patients): no significant increase
extracellular HIV RNA in culture supernatants ([7]; memory CD4 T cells, 0.5 and 1 µM VOR for 24 hours, day 6): lack of HIV RNA release
effect on total proviral DNA in peripheral CD4 T cells ([5]; multiple-dose (14-day) trial of VOR): no apparent effect
mean increase in cell-associated HIV RNA levels ([5]; once-daily VOR for 14 consecutive days, 20 patients): ~3 fold
mean increase in HIV RNA levels in resting CD4 T cells ([5]; single 400 mg dose of VOR, 8 HIV-infected patients on cART): 4.8 fold
increases in the level of plasma viremia ([5]; single-dose and 14-day VOR studies): not observed
cell death after HIV activation [12]: does not lead to cell death

CCN(CC)Cc1ccc2cc(COC(=O)Nc3ccc(C(=O)NO)cc3)ccc2c1 [Givinostat, givinostat]
EC50 [1, 13]: 95.8 ± 20.3 nM
CC50 at 48 h [2]: 24000 nM
